# Patent US20220235065A1 (Epizyme, Inc., priority 2016, published 2022)
# Experiments:
# [1] = tested on: H3K9me2 in MDA-MB-231 cells; experiment: MDA-MB-231 H3K9me2 in-cell western assay; format: cell-based; conditions: Homo sapiens, read-out: EHMT2 ICW (IC50 μM)
# Procedure, shortened: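 MDA-MB-231 cells (3,000/well) exposed to compound for two consecutive 48 h periods at 37 °C, then fixed and stained for H3K9me2, with DRAQ5 as DNA stain and infrared read at 700/800 nm. Percent inhibition was set between DMSO and UNC0638 control wells. IC50 came from triplicate dose–response fits with a four-parameter model, top 100%, bottom 0%.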
# EHMT1 = molecular target: T1, EHMT1 (Homo sapiens, UniProt Q9H9B1); experiment: EHMT1 PEP (EHMT1 peptide enzyme assay); format: biochemical; conditions: peptide substrate enzyme assay
# T1 sequence (Q9H9B1 1-1298): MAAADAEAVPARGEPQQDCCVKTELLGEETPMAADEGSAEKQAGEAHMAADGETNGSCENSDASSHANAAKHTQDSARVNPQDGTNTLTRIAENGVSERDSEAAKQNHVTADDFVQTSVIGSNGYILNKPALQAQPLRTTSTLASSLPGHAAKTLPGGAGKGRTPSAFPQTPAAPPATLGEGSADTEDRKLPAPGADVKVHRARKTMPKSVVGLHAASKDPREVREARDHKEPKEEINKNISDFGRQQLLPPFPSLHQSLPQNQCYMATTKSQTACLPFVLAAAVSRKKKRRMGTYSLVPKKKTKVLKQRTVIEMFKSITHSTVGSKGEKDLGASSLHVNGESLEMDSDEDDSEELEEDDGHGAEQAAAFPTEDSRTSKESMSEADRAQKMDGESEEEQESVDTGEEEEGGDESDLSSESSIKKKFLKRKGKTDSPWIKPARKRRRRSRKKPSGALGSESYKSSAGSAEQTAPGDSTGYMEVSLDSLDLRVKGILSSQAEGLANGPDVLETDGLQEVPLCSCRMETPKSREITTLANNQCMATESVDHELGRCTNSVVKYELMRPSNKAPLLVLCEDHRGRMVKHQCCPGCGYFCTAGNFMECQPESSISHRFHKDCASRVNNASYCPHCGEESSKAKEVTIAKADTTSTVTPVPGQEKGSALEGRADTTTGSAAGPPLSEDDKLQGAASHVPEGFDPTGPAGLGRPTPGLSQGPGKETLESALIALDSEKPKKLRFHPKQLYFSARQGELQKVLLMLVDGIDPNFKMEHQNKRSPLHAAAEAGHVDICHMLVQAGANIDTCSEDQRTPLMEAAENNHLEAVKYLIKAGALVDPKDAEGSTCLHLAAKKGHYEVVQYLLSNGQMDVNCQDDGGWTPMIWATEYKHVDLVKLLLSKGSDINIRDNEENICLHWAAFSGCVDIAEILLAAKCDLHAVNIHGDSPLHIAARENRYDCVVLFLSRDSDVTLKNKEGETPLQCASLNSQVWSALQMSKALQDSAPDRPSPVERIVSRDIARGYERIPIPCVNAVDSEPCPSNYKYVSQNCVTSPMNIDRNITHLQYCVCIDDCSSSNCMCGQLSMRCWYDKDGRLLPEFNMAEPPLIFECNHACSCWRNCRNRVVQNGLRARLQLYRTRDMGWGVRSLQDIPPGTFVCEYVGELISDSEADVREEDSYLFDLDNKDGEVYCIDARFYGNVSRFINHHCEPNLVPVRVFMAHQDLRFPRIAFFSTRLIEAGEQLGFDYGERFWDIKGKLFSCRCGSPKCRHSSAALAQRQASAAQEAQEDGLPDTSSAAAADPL
SMILES,IC50 [1],IC50 (EHMT1)
CNc1cc(C)nc(Nc2ccc(OC)c(-c3[nH]c4cnccc4c3C#N)c2)n1 [Compound 291],1 to 10 µM,1 to 10 µM
CNc1cc(C)nc(Nc2ccc(OC)c(-c3cc4[nH]ccc4c(C#N)n3)c2)n1 [Compound 292],0.1 to 1 µM,< 0.1 µM
CNc1cc(C)nc(Nc2ccc(OC)c(-c3cc4[nH]ccc4c(CNC(C)=O)n3)c2)n1 [Compound 293],1 to 10 µM,< 0.1 µM
CNc1cc(C)nc(Nc2ccc(OC)c(-c3cc4[nH]ccc4c(CN)n3)c2)n1 [Compound 296],1 to 10 µM,< 0.1 µM
CNc1nc2cc(-c3[nH]c4cnccc4c3C)c(OC)cc2n1C [Compound 304],> 10 µM,0.1 to 1 µM
COc1cc(NC2CCNC2)ccc1-c1[nH]c2cnccc2c1C (centres unmarked) [Compound 305],> 10 µM,1 to 10 µM
CNc1cc(C)nc(Nc2ccc(OC)c(-c3nccc(NC)n3)c2)n1 [Compound 306],> 10 µM,1 to 10 µM
CNCc1cnn(-c2c(F)ccc(Nc3nc(C)cc(NC)n3)c2F)c1 [Compound 307],0.1 to 1 µM,< 0.1 µM
CNc1cc(C)nc(Nc2cnc(C)c(-c3cc4ccncc4[nH]3)c2)n1 [Compound 311],> 10 µM,> 10 µM
CNCc1ccnc(-c2cc(Nc3nc(C)cc(NC)n3)ccc2OC)c1 [Compound 313],1 to 10 µM,0.1 to 1 µM
CNc1cc(C)nc(Nc2ccc(OC)c(-c3[nH]c4cnccc4c3CNC(C)=O)c2)n1 [Compound 316],0.1 to 1 µM,< 0.1 µM
CNCc1cnn(-c2c(F)ccc(Nc3nc(C)cc(NC)n3)c2OC)c1 [Compound 318],0.1 to 1 µM,0.1 to 1 µM
CNCc1cnn(-c2cc(Nc3nc(C)cc(NC)n3)ccc2Br)c1 [Compound 319],< 0.1 µM,< 0.1 µM
CCc1ccc(Nc2nc(C)cc(NC)n2)cc1-n1cc(CNC)cn1 [Compound 320],0.1 to 1 µM,< 0.1 µM
CNCc1cn(-c2cc(Nc3nc(C)cc(NC)n3)ccc2OC)nc1F [Compound 323],0.1 to 1 µM,< 0.1 µM
CNCc1cc(-c2cc(Nc3nc(C)cc(NC)n3)ccc2OC)on1 [Compound 324],1 to 10 µM,0.1 to 1 µM
CNC1=Nc2cc(-n3cc(C4CCCN4)cn3)c(Cl)cc2C12CCC2 (centres unmarked) [Compound 326],< 0.1 µM,< 0.1 µM
CNCc1cnn(-c2c(Cl)ccc(Nc3nc(C)cc(NC)n3)c2Cl)c1 [Compound 327],< 0.1 µM,< 0.1 µM
CNCc1cnn(-c2c(Cl)ccc(Nc3nc(C)cc(NC)n3)c2F)c1 [Compound 328],< 0.1 µM,< 0.1 µM
CNCc1cnn(-c2c(F)ccc(Nc3nc(C)cc(NC)n3)c2Cl)c1 [Compound 329],< 0.1 µM,< 0.1 µM
CNc1cc(C)nc(Nc2ccc(OC)c(-c3cc4[nH]cc(C)c4cn3)c2)n1 [Compound 386],< 0.1 µM,< 0.1 µM

# Now from value to molecule:
IC50 [1],IC50 (EHMT1),SMILES
1 to 10 µM,< 0.1 µM,CNC1=Nc2cc(-c3cnc4cc[nH]c4c3)c(OC)cc2C12CCC2 [Compound 294]
1 to 10 µM,0.1 to 1 µM,CNc1nc2cc(-c3cnc4cc[nH]c4c3)c(OC)cc2n1C [Compound 295]
> 10 µM,1 to 10 µM,CNc1cc(C)nc(Nc2ccc(C)c(C(=O)Nc3cn(C)nn3)c2)n1 [Compound 299]
0.1 to 1 µM,< 0.1 µM,CNC1=Nc2cc(-c3cc4[nH]ccc4nc3C)c(OC)cc2C12CCC2 [Compound 300]
> 10 µM,> 10 µM,CNc1cc(C)nc(Nc2ccc(C)c(C(=O)Nc3cn(C)cn3)c2)n1 [Compound 302]
> 10 µM,0.1 to 1 µM,CNC1=Nc2cc(-c3cc4[nH]ccc4c(C(N)=O)n3)c(OC)cc2C12CCC2 [Compound 308]
> 10 µM,0.1 to 1 µM,COc1cc2c(cc1-c1cc3[nH]ccc3cn1)N=C(NCC(N)=O)C21CCC1 [Compound 309]
> 10 µM,1 to 10 µM,COc1cc(NC2CCNCC2)ccc1-c1[nH]c2cnccc2c1C [Compound 310]
0.1 to 1 µM,< 0.1 µM,CNC1=Nc2cc(-n3cc(CN4CCC4)cn3)c(OC)cc2C12CCC2 [Compound 314]
1 to 10 µM,0.1 to 1 µM,CNc1cc(C)nc(Nc2ccc(F)c(-n3cc(CN4CCC4)cn3)c2F)n1 [Compound 315]
< 0.1 µM,< 0.1 µM,"CNCc1cnn(-c2c(OC)ccc(Nc3nc(C)cc(NC)n3)c2F)c1 [Compound 317, N2-(2-fluoro-4-methoxy-3-(4-((methylamino)methyl)-1H-pyrazol-1-yl)phenyl)-N4,6-dimethylpyrimidine-2,4-diamine]"
< 0.1 µM,< 0.1 µM,CNc1cc(C)nc(Nc2ccc(OC)c(-n3cc(C4CCCN4)cn3)c2)n1 (centres unmarked) [Compound 321]
0.1 to 1 µM,< 0.1 µM,CNC1=Nc2cc(-n3cc(C4CCCN4)cn3)c(OC)cc2C12CCC2 (centres unmarked) [Compound 322]
0.1 to 1 µM,< 0.1 µM,CNCc1cnn(-c2cc(Nc3nc(C)cc(NC)n3)ccc2C(F)(F)F)c1 [Compound 325]
< 0.1 µM,< 0.1 µM,CNc1cc(C)nc(Nc2ccc(Cl)c(-n3cc(C4CCCN4)cn3)c2)n1 (centres unmarked) [Compound 330]
0.1 to 1 µM,< 0.1 µM,CNCc1cc(-c2cc(Nc3nc(C)cc(NC)n3)ccc2OC)no1 [Compound 331]
